Experimental data published in patent US5426103A, “Certain macrocyclic lactam derivatives” (Ciba-Geigy Corporation, priority 1993, dated 1995).

What was measured:
[1] = molecular target: T1, neutral endopeptidase (NEP) (Rattus norvegicus, UniProt P07861); test: inhibition of neutral endopeptidase (NEP), substrate not stated with the result; assay type: biochemical; conditions: for relative NEP inhibiting activity of isomers: compared with the other isomer; for IC50: substrate (GAAP or ANF) not stated
T1 sequence (P07861 1-750): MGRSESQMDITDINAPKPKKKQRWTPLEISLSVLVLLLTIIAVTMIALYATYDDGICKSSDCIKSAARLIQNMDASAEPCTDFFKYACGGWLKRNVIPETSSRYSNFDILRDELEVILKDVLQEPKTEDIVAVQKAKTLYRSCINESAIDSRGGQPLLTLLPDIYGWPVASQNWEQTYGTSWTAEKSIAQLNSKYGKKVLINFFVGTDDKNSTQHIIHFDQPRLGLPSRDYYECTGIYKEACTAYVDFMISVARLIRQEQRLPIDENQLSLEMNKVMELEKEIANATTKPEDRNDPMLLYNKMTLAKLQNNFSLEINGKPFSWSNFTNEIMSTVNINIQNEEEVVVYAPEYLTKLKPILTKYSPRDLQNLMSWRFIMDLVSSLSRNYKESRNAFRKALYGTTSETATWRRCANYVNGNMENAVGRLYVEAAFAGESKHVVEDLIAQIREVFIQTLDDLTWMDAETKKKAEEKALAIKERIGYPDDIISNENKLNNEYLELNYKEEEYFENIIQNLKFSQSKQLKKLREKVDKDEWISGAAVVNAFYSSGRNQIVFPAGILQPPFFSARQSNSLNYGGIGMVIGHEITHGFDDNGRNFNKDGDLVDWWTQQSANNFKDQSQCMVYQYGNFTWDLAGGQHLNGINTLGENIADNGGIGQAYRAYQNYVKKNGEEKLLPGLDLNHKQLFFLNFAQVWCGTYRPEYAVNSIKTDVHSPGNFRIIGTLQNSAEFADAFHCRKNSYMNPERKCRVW
Method: The in vitro inhibition of neutral endopeptidase (NEP) 3.4.24.11 can be determined as follows:
Neutral endopeptidase 3.4.24.11 activity is determined by the hydrolysis of the substrate glutaryl-Ala-Ala-Phe-2-naphthylamide (GAAP) using a modified procedure of Orlowski and Wilk (1981). The incubation mixture (total volume 125 μl) contains 4.2 μg of protein (rat kidney cortex membranes prepared by method of Maeda et al, 1983), 50 mM tris buffer, pH 7.4 at 25° C., 500 μM substrate (final concentration), and leucine aminopeptidase M (2.5 μg). The mixture is incubated for 10 minutes at 25° C. and 100 μl of fast garnet (250 μg fast garnet/ml of 10% Tween 20 in 1M sodium acetate, pH 4.2) is added. Enzyme activity is measured spectrophotometrically at 540 nm. One unit of NEP 24.11 activity is defined as 1 nmol of 2-naphthylamine released per minute at 25° C. at pH 7.4. IC50 values for inhibition of the enzyme are determined, i.e. the concentration of test compound required for 50% inhibition of the release of 2-naphthylamine.
Neutral endopeptidase activity is also determined using ANF as a substrate. A trial natriuretic factor degrading activity is determined by measuring the disappearance of rat-ANF (r-ANF) using a 3 minute reverse phase-HPLC separation. An aliquot of the enzyme in 50 mM Tris HCl buffer, pH 7.4, is preincubated at 37° C. for 2 minutes and the reaction is initiated by the addition of 4 nmol of r-ANF in a total volume of 50 μl. The reaction is terminated after 4 minutes with the addition of 30 μl of 0.27% trifluoroacetic acid (TFA). Forty microliters of the mixture is injected into a reverse phase-HPLC and analyzed using a C4 cartridge in a 3 minute, isocratic separation. Twenty-three percent of buffer B (0.1% TFA in 80% acetonitrile) is used. Buffer A is 0.1% TFA in water. One unit of activity is defined as the hydrolysis of 1 nmol of r-ANF per minute at 37° C. at pH 7.4. IC50 values for inhibition of the enzyme are determined, i.e. the concentration of test compound required for 50% inhibition of the hydrolysis of ANF.
The test compound is dissolved in dimethyl sulfoxide or 0.25M sodium bicarbonate solution, and the solution is diluted with pH 7.4 buffer to the desired concentration.
In vitro testing is most appropriate for the free mercapto carboxylic acids of the invention.

[2] = molecular target: T2, Neutral endopeptidase 3.4.24.11 (Rattus norvegicus, UniProt P07861); test: in vitro inhibition of neutral endopeptidase (NEP) 3.4.24.11, GAAP substrate; assay type: biochemical; conditions: pH 7.4, 25° C.
T2 construct: rat kidney cortex membranes prepared by method of Maeda et al, 1983; from tissue; host or cells: rat kidney cortex membranes
T2 sequence (P07861 1-750): T1 sequence (P07861 1-750)

[3] = molecular target: T3, angiotensin-converting enzyme (ACE) (Oryctolagus cuniculus, UniProt P12822); test: in vitro inhibition of the angiotensin-converting enzyme (ACE), hippuryl-histidyl-leucine substrate; assay type: biochemical, rabbit; conditions: 37° C., 30 minutes
T3 construct: angiotensin-converting enzyme preparation (from lungs of adult male rabbits); from tissue; host or cells: lungs of adult male rabbits
T3 sequence (P12822 34-1310): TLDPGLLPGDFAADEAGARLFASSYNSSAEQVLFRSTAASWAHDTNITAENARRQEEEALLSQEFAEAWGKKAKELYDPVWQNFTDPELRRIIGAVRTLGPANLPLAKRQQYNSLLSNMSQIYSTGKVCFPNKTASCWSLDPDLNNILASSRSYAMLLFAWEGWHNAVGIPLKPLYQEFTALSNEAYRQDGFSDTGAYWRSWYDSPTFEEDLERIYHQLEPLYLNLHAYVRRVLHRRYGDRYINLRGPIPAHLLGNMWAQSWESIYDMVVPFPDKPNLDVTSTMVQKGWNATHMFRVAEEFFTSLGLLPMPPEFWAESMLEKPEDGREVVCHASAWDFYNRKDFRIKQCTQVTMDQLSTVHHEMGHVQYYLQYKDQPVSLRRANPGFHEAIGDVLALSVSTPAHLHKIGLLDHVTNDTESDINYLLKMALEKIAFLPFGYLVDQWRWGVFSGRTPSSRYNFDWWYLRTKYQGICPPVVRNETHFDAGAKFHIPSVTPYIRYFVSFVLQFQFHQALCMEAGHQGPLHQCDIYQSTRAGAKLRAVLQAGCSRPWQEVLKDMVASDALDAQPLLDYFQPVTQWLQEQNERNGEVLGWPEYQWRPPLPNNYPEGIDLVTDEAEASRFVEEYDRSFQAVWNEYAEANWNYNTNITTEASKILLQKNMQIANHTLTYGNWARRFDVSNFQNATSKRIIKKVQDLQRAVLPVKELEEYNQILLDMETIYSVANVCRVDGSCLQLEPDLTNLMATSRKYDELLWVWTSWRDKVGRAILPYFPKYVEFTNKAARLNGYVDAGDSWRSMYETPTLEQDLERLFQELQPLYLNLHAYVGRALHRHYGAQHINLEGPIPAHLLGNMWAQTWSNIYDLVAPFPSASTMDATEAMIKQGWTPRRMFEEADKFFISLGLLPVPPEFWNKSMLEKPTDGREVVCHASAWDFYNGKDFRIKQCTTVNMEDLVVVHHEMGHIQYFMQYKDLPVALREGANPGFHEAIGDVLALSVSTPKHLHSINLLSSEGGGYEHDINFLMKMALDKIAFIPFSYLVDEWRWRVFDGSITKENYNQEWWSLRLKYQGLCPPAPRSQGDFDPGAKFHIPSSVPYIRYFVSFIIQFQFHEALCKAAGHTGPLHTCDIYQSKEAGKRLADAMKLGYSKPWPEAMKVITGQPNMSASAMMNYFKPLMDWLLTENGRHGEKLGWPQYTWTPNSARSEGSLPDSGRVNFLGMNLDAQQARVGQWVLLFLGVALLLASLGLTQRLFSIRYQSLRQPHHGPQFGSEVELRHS
Method: Biophys. Acta 293, p. 451 (1973). For example, said compounds are dissolved at about 1 mM concentration in phosphate buffer. To 100 microliters of solutions of the test compound in phosphate buffer, diluted to the desired concentration, are added 100 microliters of 5 mM hippuryl-histidyl-leucine in phosphate buffer, followed by 50 microliters of the angiotensin-converting enzyme preparation (from lungs of adult male rabbits) in Tris buffer, containing potassium and magnesium chloride, as well as sucrose. Said solutions are incubated at 37° C. for 30 minutes and combined with 0.75 ml of 0.6N aqueous sodium hydroxide to stop further reaction. Then 100 microliters of a 0.2% solution of o-phthalaldehyde in methanol are added at room temperature, and 10 minutes later 100 microliters of 6N hydrochloric acid. These samples are read against water in a spectrophotometer set at 360 nm, and the optical densities thereof estimated. They are corrected for the standard curve via a conversion factor expressing nanomoles of histidyl-leucine formed during said 30 minute incubation period. The results are plotted against drug concentration to determine the IC50, i.e., the drug concentration which gives half the activity of the control sample containing no drug.

Row | SMILES | relative NEP inhibiting activity of isomers [1] | IC50 [2] | IC50 [1] | IC50 [3]
1 | O=C1N[C@@H](C(=O)O)CCCCCC[C@H]1CS (relative stereo) [Example 2(b), 3-mercaptomethyl-2-oxo-1-azacyclodecane-10-carboxylic acid] | less active diastereoisomer |  |  | 
2 | CC(=O)SC[C@H]1CCCCCC[C@H](C(=O)O)NC1=O (relative stereo) [Example 16, trans 3-(acetylthiomethyl)-2-oxo-1-azacyclodecane-10-carboxylic acid] | more active NEP inhibiting enantiomer |  |  | 
3 | O=C1N[C@@H](C(=O)O)CCCCCC[C@@H]1CS (relative stereo) [trans 3-mercaptomethyl-2-oxo-1-azacyclodecane-10-carboxylic acid] | more active neutral endopeptidase (NEP) inhibiting diastereoisomer | ~3 nM |  | 
4 | O=C1N[C@H](C(=O)O)CSCCCCCCCC1CS (single isomer, unassigned) | more active NEP inhibiting isomer |  | 18 nM | 12 nM
5 | COC(=O)C1CCCCCCCCCCC(CSC(C)=O)C(=O)N1 (single isomer, unassigned) [Example 24 (minor isomer), methyl 3-(acetylthiomethyl)-2-oxo-1-azacyclotetradecane-14-carboxylate] | more active NEP inhibiting isomer |  |  | 
6 | O=C1NC(C(=O)O)CCCCCCCCCCC1CS (single isomer, unassigned) [Example 25(b), 3-mercaptomethyl-2-oxo-1-azacyclotetradecane-14-carboxylic acid] | more active NEP inhibiting isomer |  |  | 
7 | O=C1N[C@H](C(=O)O)CSCCCCCCCCC1CS (single isomer, unassigned) [Example 35(b)] | more active NEP inhibiting isomer |  |  | 
8 | O=C1NC(C(=O)O)CCCCCCCCCCC1CS (stereo not drawn) [3-mercaptomethyl-2oxo-1-azacyclotetradecane-14-carboxylic acid] |  |  | ~30 nM | ~45 nM
